Key:
HO-1 = assay: Western blot of HO-1 in THP-1 monocytes and macrophages; format: cell-based, human; settings: THP-1 macrophages, 3 mM RRx-001 for 16 hours
Experimental: Expression of ARE proteins was assayed in hMSC, macrophages, and monocytes following in vitro irradiation of the cells, which were pretreated with RRx-001 or vehicle. Protein expression was assayed by Western blotting and protein quantification.
hMSC were treated for 16 hours with […] RRx-001 or the vehicle control (0.05% DMSO), irradiated at 10 Gy or sham-irradiated and the protein collected 8 or 24 hours post-sham or irradiation. Human monocytic leukemic THP-1 and U937 cells were differentiated into macrophages with 50 nM Phorbol 12-myristate 13-acetate (PMA) for 24 hours before treatment. Differentiated and non-differentiated cells were treated with […] RRx-001 or 0.05% DMSO (vehicle control) for 16 hours prior to radiation. The cells were irradiated at 5 Gy or sham-irradiated and collected 4-8 hours later for both analysis. For each experiment, duplicates of each sample were run.

CD2F1 male mice = assay: Complete blood count with differential and reticulocytes after sublethal TBI or sham irradiation; format: in vivo
Experimental: To determine the pathophysiological effects of RRx-001 on hematopoietic protection in mice, CD2F1 male mice were treated with 10 mg/kg RRx-001 or the vehicle control 24 hours prior to a sublethal dose of TBI (7 Gy at 0.6 Gy/min using High-level Cobalt-60) or sham irradiation (day 0) according to the table below.
CD2F1 male mice (n=3/group) were divided into 4 experimental groups: 1) irradiation+vehicle, 2) irradiation+RRx-001, 3) sham-irradiation+vehicle and 4) sham-irradiation+RRx-001. Either 10 mg/kg RRx-001 or the vehicle control were IP injected 24 hours prior to either irradiation or sham-irradiation (day 0). On days 2, 7, 14, 21, and 28 post-irradiation (day 0) mice were humanely euthanized. Blood, bone marrow, and sternebrae were then collected. This experiment was performed in duplicate for a total of n=6 mice/group/time point.
Post-irradiation whole blood was obtained by terminal cardiocentesis. Blood samples were immediately transferred into EDTA tubes (Sarstedt Inc., Newton, N.C.) and gently rotated until the time of analysis. The tubes were analyzed for a complete blood count with differential and reticulocytes using the ADVIA 2120 (Siemens Medical Solutions Diagnostics, Dublin, Ireland), and Microsoft software version 5.9 (Microsoft Corp., Redmond, Wash.) to generate the data.
Blood parameters were compared between treatment groups using an analysis of variance (ANOVA). The Wilcoxon test was also used for sensitivity and to potentially address data departures from normality. A longitudinal mixed model repeated measures was also implemented to provide a more complete data analysis of the sham-irradiated treatment groups' difference in overall time profile mean based on the blood parameters. Bone marrow data (megakaryocytes and grade) statistical analysis was carried out using a parametric test consisting of a general linear model analysis of variance (ANOVA with factors consisting of treatment group and pathologist) and the Kruskal-Wallis nonparametric test. The statistical data analysis was carried out using R software (Version 3.4.3, 2016) and the graphs made using GraphPad Prism version 7.03 (GraphPad Software, La Jolla, Calif.).

[1] = tested on: human monocytic leukemic THP-1 cells; assay: Cytokine array of irradiated THP-1 monocytes and macrophages; format: cell-based
Experimental: A cytokine array was employed to examine cytokine expression following in vitro irradiation of human monocytic leukemic THP-1 cells. THP-1 cells were differentiated into macrophages with 50 nM Phorbol 12-myristate 13-acetate (PMA) for 24 hours before treatment. Differentiated and non-differentiated cells were treated with […] RRx-001 or 0.05% DMSO (vehicle control) for 16 hours prior to radiation. The cells were irradiated at 5 Gy or sham-irradiated and collected 4-8 hours later for both analysis. For the cytokine analysis, cell media was collected and blotted onto Proteome Profiler Human Cytokine Arrays (R&D Systems, Inc.) according to the manufacturer's protocol.

[2] = Tolerability and body weight in the hamster mucositis study; format: in vivo, hamsters
Experimental: Fifty-six (56) male Syrian Golden Hamsters were used in the study. Mucositis was induced by administering an acute radiation dose of 40 Gy directed to the left buccal cheek pouch on Day 0 at a rate of 2-2.5 Gy/min. Mucositis was evaluated clinically starting on Day 6 and continuing on alternate days until Day 28. Hamsters reaching a mucositis severity score of 4 or higher received buprenorphine (0.5 mg/kg) SC twice a day for 48 hours or until score dropped below 4.
Dosing was scheduled as follows: for animals in Groups 1-4, animals were dosed with RRx-001 (1, 3, or 10 mg/kg) or vehicle (1:2 DMA:PEG400 vol:vol ratio) once a day (QD) on Days −4, −1, 1, 4, 7, 11, 14, 18, 21, and 25 via intraperitoneal (IP) administration; animals in Groups 5-7 were dosed QD with RRx-001 (1, 3, or 10 mg/kg) on Days −4, −1, 1, 8, 15, and 22.
Dosing of all other groups continued as scheduled. Upon study conclusion, on Day 28, Animals were euthanized via CO2 inhalation and death was confirmed by monitoring heartbeat in accordance with USDA guidelines.

[3] = 7 Gy TBI, decrease below sham controls on days 7 and 14
[4] = days 2 and 21 post-irradiation (7 Gy TBI)

With `O=C(CBr)N1CC([N+](=O)[O-])([N+](=O)[O-])C1` [RRx-001, 2-bromo-1-(3,3-dinitroazetidin-1-yl)ethan-1-one] the HO-1 expression (HO-1) was “no significant increase in HO-1”, the “% HCT compared to the irradiated control” value (CD2F1 male mice; 7 Gy TBI, day 14) was “significantly increased levels” and the “ALC counts compared to the controls” value (CD2F1 male mice; 7 Gy TBI, day 14) was “significantly increased”. For the same compound, the “WBC counts compared to the controls” value (CD2F1 male mice; 7 Gy TBI, day 14) was “significantly increased”, the “% RETIC compared to control mice” value (CD2F1 male mice; 7 Gy TBI, day 14, returned to baseline levels) was “significantly increased” and the “% RETIC compared to the vehicle controls” value (CD2F1 male mice; 7 Gy TBI, day 28) was “significantly increased”. The “ANC compared to the control” value (CD2F1 male mice; 7 Gy TBI, days 7 and 14) was “significantly increased”, the “PLT compared to the control” value (CD2F1 male mice; 7 Gy TBI, days 7 and 14) was “significantly increased” and the “hemoglobin, irradiated RRx-001 vs irradiated vehicle” value (CD2F1 male mice; [3]) was “not significantly different”. The “red blood cells, irradiated RRx-001 vs irradiated vehicle” value (CD2F1 male mice; [3]) was “not significantly different”, the “absolute lymphocyte count (ALC) vs vehicle control” value (CD2F1 male mice; [4]) was “No significant difference” and the “absolute neutrophil count (ANC) vs vehicle control” value (CD2F1 male mice; [4]) was “No significant difference”. For the same compound, the “percent hematocrit (% HCT) vs vehicle control” value (CD2F1 male mice; [4]) was “No significant difference”, the “percent reticulocytes (% RETIC) vs vehicle control” value (CD2F1 male mice; [4]) was “No significant difference” and the “platelets (PLT) vs vehicle control” value (CD2F1 male mice; [4]) was “No significant difference”. For the same compound, the “white blood cells (WBC) vs vehicle control” value (CD2F1 male mice; [4]) was “No significant difference”, the “platelets, overall mean over time (standard error)” value (CD2F1 male mice; sham-irradiated, 10 mg/kg IP, longitudinal mixed model repeated measures) was 1067.73 (32.26) and the “difference in the overall mean of platelets over time vs vehicle” value (CD2F1 male mice; sham-irradiated, least-square means, p=0.01) was “statistically significant difference in the least-square means in favor of RRx-001-treatment”. For the same compound, the “cytokine expression (cytokine array)” value ([1]; THP-1 macrophage fraction, 3 mM RRx-001 for 16 hours, sham and 5 Gy irradiated) was “reduction in cytokines involved in inflammation”, the “CCL5/RANTES expression (cytokine array)” value ([1]; THP-1 monocytes, 3 mM RRx-001 for 16 hours) was “induction” and the “pro-inflammatory chemokine IL-8” value ([1]; macrophages) was “reduction”. For the same compound, the body weight ([2]; Groups 2 and 5 (10 mg/kg)) was “lower weights than all other groups”, the “body weight after cessation of dosing” value ([2]; Groups 2 and 5 (10 mg/kg), in line with other groups by study termination) was “weight slowly recovered” and the body weight ([2]; animals other than Groups 2 and 5 (1 and 3 mg/kg), duration of the study) was “steadily gained weight”. The tolerability ([2]; highest dose 10 mg/kg IP, Groups 2 and 5, dosing discontinued after Day 1) was “adverse side effects”.

Reference: patent US20200345689A1, “METHODS AND CO[…] RRx-001 FOR RADIOPROTECTION” (EpicentRx, Inc., priority 2018, published 2020)
